From BindingDB's records for patent US12496348 (Dana-Farber Cancer Institute, 2025)

Biological target: CREB-binding protein (Homo sapiens, UniProt Q92793)
Experiment: CBP (Bromodomain) AlphaScreen Assay
Method: Assays were performed with minimal modifications from the manufacturer's protocol (PerkinElmer , USA). All reagents were diluted in 50 mM 4-(2-hydroxyethyl)-1-piperazineethanesulfonic acid (HEPES), 150 mM NaCl, 0.1% w/v bovine serum albumin (BSA), 0.01% w/v Tween 20, pH 7.5 and allowed to equilibrate to room temperature prior to addition to plates. After addition of AlphaScreen acceptor beads to master solutions, all subsequent steps were performed under low light conditions. A 2× solution of components with final concentrations of CBP bromodomain at 40 nM, Ni-coated Acceptor Bead at 10 μg/ml, and 7.2 nM biotinylated-Int-2 was added in 10 μL to 384-well plates (AlphaPlate-384, PerkinElmer , USA). Plates were spun down at 150×g, 100 nL of compound in dimethyl sulfoxide (DMSO) from stock plates were added by pin transfer using a Janus Workstation (PerkinElmer , USA). The streptavidin-coated donor beads ([…] final) were added as with previous the solution in a 2×10 μL volume. Following this addition, plates were sealed with foil to prevent light exposure and evaporation. The plates were spun down again at 150×g. Plates were incubated at room temperature for 1 hour and then read on a 2104 EnVision Multilabel Plate Reader (PerkinElmer , USA) using the manufacturer's protocol.

Chain of CREB-binding protein (Q92793 whole entry): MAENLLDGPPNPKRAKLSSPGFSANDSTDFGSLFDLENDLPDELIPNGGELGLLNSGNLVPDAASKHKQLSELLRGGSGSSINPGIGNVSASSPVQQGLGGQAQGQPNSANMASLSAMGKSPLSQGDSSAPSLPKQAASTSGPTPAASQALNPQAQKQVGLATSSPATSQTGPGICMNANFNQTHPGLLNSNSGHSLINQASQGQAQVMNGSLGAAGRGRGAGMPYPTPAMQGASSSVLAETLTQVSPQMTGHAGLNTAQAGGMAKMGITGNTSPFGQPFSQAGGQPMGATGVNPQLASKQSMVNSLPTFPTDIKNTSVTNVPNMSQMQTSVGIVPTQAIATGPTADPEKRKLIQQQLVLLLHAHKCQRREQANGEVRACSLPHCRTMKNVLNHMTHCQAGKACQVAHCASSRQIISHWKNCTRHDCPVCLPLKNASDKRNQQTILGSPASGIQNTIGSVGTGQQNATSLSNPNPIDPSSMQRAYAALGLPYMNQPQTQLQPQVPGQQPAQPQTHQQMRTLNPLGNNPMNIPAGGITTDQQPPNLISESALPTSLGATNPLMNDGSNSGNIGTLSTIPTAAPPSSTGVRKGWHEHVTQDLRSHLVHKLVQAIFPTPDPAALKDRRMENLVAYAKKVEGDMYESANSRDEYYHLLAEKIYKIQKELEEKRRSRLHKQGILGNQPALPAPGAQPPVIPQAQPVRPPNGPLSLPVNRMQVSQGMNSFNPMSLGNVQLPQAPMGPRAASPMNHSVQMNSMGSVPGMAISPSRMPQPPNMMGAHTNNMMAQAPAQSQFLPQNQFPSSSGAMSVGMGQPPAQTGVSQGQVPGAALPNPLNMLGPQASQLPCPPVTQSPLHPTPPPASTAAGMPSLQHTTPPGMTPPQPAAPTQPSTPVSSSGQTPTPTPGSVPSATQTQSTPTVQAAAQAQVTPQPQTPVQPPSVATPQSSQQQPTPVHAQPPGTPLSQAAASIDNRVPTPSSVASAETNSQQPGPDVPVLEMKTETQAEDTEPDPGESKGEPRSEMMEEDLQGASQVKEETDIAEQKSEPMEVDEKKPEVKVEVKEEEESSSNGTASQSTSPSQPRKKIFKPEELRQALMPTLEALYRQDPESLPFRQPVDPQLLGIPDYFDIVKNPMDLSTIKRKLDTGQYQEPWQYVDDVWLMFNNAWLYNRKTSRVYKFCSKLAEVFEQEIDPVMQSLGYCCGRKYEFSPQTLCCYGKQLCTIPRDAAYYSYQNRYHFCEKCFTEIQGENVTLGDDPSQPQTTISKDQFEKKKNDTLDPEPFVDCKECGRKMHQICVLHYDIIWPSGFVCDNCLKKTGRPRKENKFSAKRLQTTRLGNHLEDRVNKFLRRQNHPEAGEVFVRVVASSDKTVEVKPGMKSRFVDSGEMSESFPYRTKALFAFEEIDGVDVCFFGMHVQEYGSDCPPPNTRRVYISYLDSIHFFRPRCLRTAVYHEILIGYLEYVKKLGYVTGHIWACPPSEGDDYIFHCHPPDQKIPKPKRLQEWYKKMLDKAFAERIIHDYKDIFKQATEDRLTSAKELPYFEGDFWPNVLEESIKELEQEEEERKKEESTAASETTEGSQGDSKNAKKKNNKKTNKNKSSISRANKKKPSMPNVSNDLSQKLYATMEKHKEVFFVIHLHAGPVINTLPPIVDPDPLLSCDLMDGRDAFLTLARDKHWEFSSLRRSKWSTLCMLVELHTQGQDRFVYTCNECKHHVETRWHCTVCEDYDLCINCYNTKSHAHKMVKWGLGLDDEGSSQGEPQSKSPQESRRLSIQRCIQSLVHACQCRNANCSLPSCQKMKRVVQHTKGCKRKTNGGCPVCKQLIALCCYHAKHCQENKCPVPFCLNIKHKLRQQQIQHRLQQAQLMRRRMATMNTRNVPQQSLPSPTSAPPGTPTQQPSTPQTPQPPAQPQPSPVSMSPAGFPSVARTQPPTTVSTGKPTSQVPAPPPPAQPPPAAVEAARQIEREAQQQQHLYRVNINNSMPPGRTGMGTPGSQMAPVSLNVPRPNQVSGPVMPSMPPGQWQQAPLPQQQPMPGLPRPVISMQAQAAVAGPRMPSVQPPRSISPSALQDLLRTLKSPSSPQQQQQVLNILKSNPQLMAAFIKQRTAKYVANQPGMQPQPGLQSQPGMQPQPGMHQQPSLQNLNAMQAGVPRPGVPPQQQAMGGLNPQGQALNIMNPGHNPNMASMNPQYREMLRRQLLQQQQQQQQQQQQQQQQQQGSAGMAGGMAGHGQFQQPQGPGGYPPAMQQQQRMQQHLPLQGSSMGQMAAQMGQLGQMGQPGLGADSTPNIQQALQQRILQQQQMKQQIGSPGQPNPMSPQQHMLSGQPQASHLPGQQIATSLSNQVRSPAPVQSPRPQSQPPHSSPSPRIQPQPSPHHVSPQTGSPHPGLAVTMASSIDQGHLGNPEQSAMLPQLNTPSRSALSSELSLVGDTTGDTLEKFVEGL

IC50: 18.9 µM
Structure (SMILES): Cc1noc(C)c1-c1ccc2nc(-c3ccc(N4CCN(C(=O)CCCCCCCCCCCNc5ccc6c(c5)C(=O)N(C5CCC(=O)NC5=O)C6=O)CC4)cc3)c(NC3CCCCC3)n2c1 (stereo unspecified) [US12496348, Compound 1]
